Data reported in ChEMBL document CHEMBL3352057, “Novel fluorinated pyrrolo[1,2-a]pyrazine-2,6-dione derivatives: synthesis and anticonvulsant evaluation in animal models of epilepsy” (Bioorg Med Chem, 2014).
The source made the active and inactive calls. The calls are words filed in the database; no cut-off is given here.

How the values were obtained:
[1] = test system: Mus musculus; assay: Anticonvulsant activity in albino CF1 mouse assessed as protection against subcutaneous metrazol-induced seizures at 100 mg/kg, ip measured after 1 hr; format: functional, organism-based; set-up: dose 100 mg/kg
[2] = test system: Mus musculus; assay: Anticonvulsant activity in albino CF1 mouse assessed as protection against 32 mA current-induced seizures at 100 mg/kg, ip measured after 0.25 hr; format: functional, organism-based; set-up: dose 100 mg/kg
[3] = test system: Mus musculus; assay: Anticonvulsant activity in albino CF1 mouse assessed as protection against maximal electroshock-induced seizures at 100 mg/kg, ip measured after 1 hr; format: functional, organism-based; set-up: dose 100 mg/kg
[4] = test system: Mus musculus; assay: Neurotoxicity in 32 mA current-induced seizure albino CF1 mouse model at 100 mg/kg, ip measured after 2 hrs; format: toxicity, organism-based; set-up: dose 100 mg/kg, route intraperitoneal; settings: in vivo
[5] = test system: Mus musculus; assay: Anticonvulsant activity in albino CF1 mouse assessed as protection against maximal electroshock-induced seizures at 100 mg/kg, ip measured after 0.5 hr; format: functional, organism-based; set-up: dose 100 mg/kg
[6] = test system: Mus musculus; assay: Anticonvulsant activity in albino CF1 mouse assessed as protection against subcutaneous metrazol-induced seizures at 100 mg/kg, ip measured after 0.25 hr; format: functional, organism-based; set-up: dose 100 mg/kg
[7] = test system: Mus musculus; assay: Anticonvulsant activity in albino CF1 mouse assessed as protection against 32 mA current-induced seizures at 100 mg/kg, ip measured after 2 hrs; format: functional, organism-based; set-up: dose 100 mg/kg
[8] = test system: Mus musculus; assay: Neurotoxicity in 32 mA current-induced seizure albino CF1 mouse model at 100 mg/kg, ip measured after 1 hr; format: toxicity, organism-based; set-up: dose 100 mg/kg, route intraperitoneal; settings: in vivo
[9] = test system: Mus musculus; assay: Neurotoxicity in albino CF1 mouse at 100 mg/kg, ip measured after 4 hrs; format: toxicity, organism-based; set-up: dose 100 mg/kg, route intraperitoneal; settings: in vivo
[10] = test system: Mus musculus; assay: Anticonvulsant activity in albino CF1 mouse assessed as protection against 32 mA current-induced seizures at 100 mg/kg, ip measured after 1 hr; format: functional, organism-based; set-up: dose 100 mg/kg
[11] = test system: Mus musculus; assay: Neurotoxicity in 32 mA current-induced seizure albino CF1 mouse model at 100 mg/kg, ip measured after 0.25 hr; format: toxicity, organism-based; set-up: dose 100 mg/kg, route intraperitoneal; settings: in vivo
[12] = test system: Mus musculus; assay: Anticonvulsant activity in albino CF1 mouse assessed as protection against maximal electroshock-induced seizures at 100 mg/kg, ip measured after 4 hrs; format: functional, organism-based; set-up: dose 100 mg/kg
[13] = test system: Rattus norvegicus; assay: Neurotoxicity in MES Sprague-Dawley rat model at 30 mg/kg, ip measured after 1 hr; format: toxicity, organism-based; set-up: dose 30 mg/kg, route intraperitoneal; settings: in vivo
[14] = test system: Mus musculus; assay: Neurotoxicity in albino CF1 mouse at 100 mg/kg, ip measured after 0.5 hr; format: toxicity, organism-based; set-up: dose 100 mg/kg, route intraperitoneal; settings: in vivo
[15] = test system: Rattus norvegicus; assay: Anticonvulsant activity in Sprague-Dawley rat assessed as protection against maximal electroshock-induced seizures at 30 mg/kg, ip measured after 1 hr; format: functional, organism-based; set-up: dose 30 mg/kg
[16] = test system: Mus musculus; assay: Neurotoxicity in 32 mA current-induced seizure albino CF1 mouse model at 100 mg/kg, ip measured after 0.5 hr; format: toxicity, organism-based; set-up: dose 100 mg/kg, route intraperitoneal; settings: in vivo
[17] = test system: Mus musculus; assay: Anticonvulsant activity in albino CF1 mouse assessed as protection against subcutaneous metrazol-induced seizures at 100 mg/kg, ip measured after 4 hrs; format: functional, organism-based; set-up: dose 100 mg/kg
[18] = test system: Mus musculus; assay: Neurotoxicity in albino CF1 mouse at 100 mg/kg, ip measured after 0.25 hr; format: toxicity, organism-based; set-up: dose 100 mg/kg, route intraperitoneal; settings: in vivo
[19] = test system: Rattus norvegicus; assay: Neurotoxicity in MES Sprague-Dawley rat model at 30 mg/kg, ip measured after 2 hrs; format: toxicity, organism-based; set-up: dose 30 mg/kg, route intraperitoneal; settings: in vivo
[20] = test system: Mus musculus; assay: Anticonvulsant activity in albino CF1 mouse assessed as protection against subcutaneous metrazol-induced seizures at 100 mg/kg, ip measured after 0.5 hr; format: functional, organism-based; set-up: dose 100 mg/kg
[21] = test system: Mus musculus; assay: Anticonvulsant activity in albino CF1 mouse assessed as protection against 32 mA current-induced seizures at 100 mg/kg, ip measured after 4 hrs; format: functional, organism-based; set-up: dose 100 mg/kg
[22] = test system: Rattus norvegicus; assay: Anticonvulsant activity in Sprague-Dawley rat assessed as protection against maximal electroshock-induced seizures at 30 mg/kg, ip measured after 2 hrs; format: functional, organism-based; set-up: dose 30 mg/kg
[23] = test system: Rattus norvegicus; assay: Neurotoxicity in MES Sprague-Dawley rat model at 30 mg/kg, ip measured after 0.5 hr; format: toxicity, organism-based; set-up: dose 30 mg/kg, route intraperitoneal; settings: in vivo
[24] = test system: Mus musculus; assay: Neurotoxicity in albino CF1 mouse at 100 mg/kg, ip measured after 1 hr; format: toxicity, organism-based; set-up: dose 100 mg/kg, route intraperitoneal; settings: in vivo
[25] = test system: Mus musculus; assay: Anticonvulsant activity in albino CF1 mouse assessed as protection against 32 mA current-induced seizures at 100 mg/kg, ip measured after 0.5 hr; format: functional, organism-based; set-up: dose 100 mg/kg
[26] = test system: Rattus norvegicus; assay: Anticonvulsant activity in Sprague-Dawley rat assessed as protection against maximal electroshock-induced seizures at 30 mg/kg, ip measured after 0.5 hr; format: functional, organism-based; set-up: dose 30 mg/kg
[27] = test system: Rattus norvegicus; assay: Neurotoxicity in MES Sprague-Dawley rat model at 30 mg/kg, ip measured after 0.25 hr; format: toxicity, organism-based; set-up: dose 30 mg/kg, route intraperitoneal; settings: in vivo
[28] = test system: Rattus norvegicus; assay: Anticonvulsant activity in Sprague-Dawley rat assessed as protection against maximal electroshock-induced seizures at 30 mg/kg, ip measured after 4 hrs; format: functional, organism-based; set-up: dose 30 mg/kg
[29] = test system: Rattus norvegicus; assay: Anticonvulsant activity in Sprague-Dawley rat assessed as protection against maximal electroshock-induced seizures at 30 mg/kg, ip measured after 0.25 hr; format: functional, organism-based; set-up: dose 30 mg/kg
[30] = test system: Mus musculus; assay: Anticonvulsant activity in albino CF1 mouse assessed as protection against maximal electroshock-induced seizures at 100 mg/kg, ip measured after 0.25 hr; format: functional, organism-based; set-up: dose 100 mg/kg
[31] = test system: Rattus norvegicus; assay: Neurotoxicity in MES Sprague-Dawley rat model at 30 mg/kg, ip measured after 4 hrs; format: toxicity, organism-based; set-up: dose 30 mg/kg, route intraperitoneal; settings: in vivo
[32] = test system: Mus musculus; assay: Neurotoxicity in 32 mA current-induced seizure albino CF1 mouse model at 100 mg/kg, ip measured after 4 hrs; format: toxicity, organism-based; set-up: dose 100 mg/kg, route intraperitoneal; settings: in vivo
[33] = test system: Rattus norvegicus; assay: Neurotoxicity in MES Sprague-Dawley rat model at 30 mg/kg, po measured after 1 hr; format: toxicity, organism-based; set-up: dose 30 mg/kg, route oral; settings: in vivo
[34] = test system: Rattus norvegicus; assay: Neurotoxicity in MES Sprague-Dawley rat model at 30 mg/kg, po measured after 4 hrs; format: toxicity, organism-based; set-up: dose 30 mg/kg, route oral; settings: in vivo
[35] = test system: Rattus norvegicus; assay: Anticonvulsant activity in Sprague-Dawley rat assessed as protection against maximal electroshock-induced seizures at 30 mg/kg, po measured after 2 hrs; format: functional, organism-based; set-up: dose 30 mg/kg
[36] = test system: Rattus norvegicus; assay: Neurotoxicity in MES Sprague-Dawley rat model at 30 mg/kg, po measured after 0.5 hr; format: toxicity, organism-based; set-up: dose 30 mg/kg, route oral; settings: in vivo
[37] = test system: Rattus norvegicus; assay: Anticonvulsant activity in Sprague-Dawley rat assessed as protection against maximal electroshock-induced seizures at 30 mg/kg, po measured after 4 hrs; format: functional, organism-based; set-up: dose 30 mg/kg
[38] = test system: Rattus norvegicus; assay: Neurotoxicity in MES Sprague-Dawley rat model at 30 mg/kg, po measured after 0.25 hr; format: toxicity, organism-based; set-up: dose 30 mg/kg, route oral; settings: in vivo
[39] = test system: Rattus norvegicus; assay: Anticonvulsant activity in Sprague-Dawley rat assessed as protection against maximal electroshock-induced seizures at 30 mg/kg, po measured after 0.25 hr; format: functional, organism-based; set-up: dose 30 mg/kg
[40] = test system: Rattus norvegicus; assay: Anticonvulsant activity in Sprague-Dawley rat assessed as protection against maximal electroshock-induced seizures at 30 mg/kg, po measured after 1 hr; format: functional, organism-based; set-up: dose 30 mg/kg
[41] = test system: Rattus norvegicus; assay: Neurotoxicity in MES Sprague-Dawley rat model at 30 mg/kg, po measured after 2 hrs; format: toxicity, organism-based; set-up: dose 30 mg/kg, route oral; settings: in vivo
[42] = test system: Rattus norvegicus; assay: Anticonvulsant activity in Sprague-Dawley rat assessed as protection against maximal electroshock-induced seizures at 30 mg/kg, po measured after 0.5 hr; format: functional, organism-based; set-up: dose 30 mg/kg

Compound	Activity [1]	Activity [2]	Activity [3]	Activity [4]	Activity [5]	Activity [6]	Activity [7]	Activity [8]	Activity [9]	Activity [10]	Activity [11]	Activity [12]	Activity [13]	Activity [14]	Activity [15]	Activity [16]	Activity [17]	Activity [18]	Activity [19]	Activity [25]	also measured
O=C1NC(=O)[C@@H]2CCCCN2[C@H]1c1cccc(C(F)(F)F)c1	inactive	Active	inactive	Non-toxic	inactive	inactive	inactive	Non-toxic	Non-toxic	inactive	Non-toxic	inactive	Non-toxic	Non-toxic	inactive	Non-toxic	inactive	Non-toxic	Non-toxic	Active	Activity [20]: inactive; Activity [21]: inactive; Activity [22]: inactive; Activity [23]: Non-toxic; Activity [24]: Non-toxic; Activity [26]: inactive; Activity [27]: Non-toxic; Activity [28]: inactive; Activity [29]: inactive; Activity [30]: inactive; Activity [31]: Non-toxic; Activity [32]: Non-toxic
Cl.O=C1NC(=O)[C@@H]2C[C@@H](O)CN2C1c1cccc(C(F)(F)F)c1 (mixture of isomers)	–	–	–	Non-toxic	Active	–	inactive	–	Non-toxic	–	–	inactive	Non-toxic	Toxic	inactive	Toxic	–	–	Non-toxic	Active	Activity [33]: Non-toxic; Activity [34]: Non-toxic; Activity [35]: inactive; Activity [36]: Non-toxic; Activity [37]: inactive; Activity [38]: Non-toxic; Activity [22]: inactive; Activity [23]: Non-toxic; Activity [39]: inactive; Activity [40]: inactive; Activity [26]: inactive; Activity [27]: Non-toxic; Activity [28]: inactive; Activity [41]: Non-toxic; Activity [42]: inactive; Activity [29]: inactive; Activity [31]: Non-toxic
O=C1NC(=O)[C@@H]2CCCN2[C@H]1c1cccc(F)c1	inactive	Active	inactive	Non-toxic	Active	Active	inactive	Non-toxic	Non-toxic	inactive	Non-toxic	inactive	–	Non-toxic	–	Non-toxic	inactive	Non-toxic	–	Active	Activity [33]: Non-toxic; Activity [34]: Non-toxic; Activity [35]: inactive; Activity [36]: Non-toxic; Activity [37]: inactive; Activity [38]: Non-toxic; Activity [20]: Active; Activity [21]: inactive; Activity [39]: inactive; Activity [24]: Non-toxic; Activity [40]: inactive; Activity [41]: Non-toxic; Activity [42]: inactive; Activity [30]: Active; Activity [32]: Non-toxic
O=C1NC(=O)[C@@H]2CCCN2[C@H]1c1ccc(C(F)(F)F)cc1	inactive	inactive	Active	Non-toxic	inactive	Active	inactive	Non-toxic	Non-toxic	inactive	Non-toxic	inactive	Non-toxic	Non-toxic	inactive	Non-toxic	inactive	Non-toxic	Non-toxic	Active	Activity [20]: Active; Activity [21]: inactive; Activity [22]: inactive; Activity [23]: Non-toxic; Activity [24]: Non-toxic; Activity [26]: inactive; Activity [27]: Non-toxic; Activity [28]: inactive; Activity [29]: inactive; Activity [30]: Active; Activity [31]: Non-toxic; Activity [32]: Non-toxic
